In one data set the test system is HIV strain L100I + K103N. As to the kind of experiment: microbe, parasite or virus in culture. Particulars: for EC50: Human immunodeficiency virus 1, 72 h, read-out: L100I + K103N pEC50 (−log EC50) (converted); for L100I + K103N pEC50 (−log EC50): HIV strain L100I + K103N, MT4 LTR-EGFP cells, three days after infection. The data set is classed as cell-based, HIV-1. From the text: (§1) Image analysis allows very sensitive detection of viral infection.

The next data set has as its system HIV strain K103N + Y181C. The data set is described as follows: microbe, parasite or virus in culture. Type of data set: cell-based, HIV-1. As to conditions: for EC50: Human immunodeficiency virus 1, 72 h, read-out: K103N + Y181C pEC50 (−log EC50) (converted); for K103N + Y181C pEC50 (−log EC50): HIV strain K103N + Y181C, MT4 LTR-EGFP cells, three days after infection.
Source text: as §1

A further data set concerns HIV strain Y181C. The data set is described as follows: microbe, parasite or virus in culture. Type of data set: cell-based, HIV-1. Particulars: for EC50: Human immunodeficiency virus 1, 72 h, read-out: Y181C pEC50 (−log EC50) (converted); for Y181C pEC50 (−log EC50): HIV strain Y181C, MT4 LTR-EGFP cells, three days after infection.
Source text: as §1

The test system of data set [1] is HIV strain MDR (L100I, K103N, Y181C, E138G, V179I, L2214F, V278V/I and A327A/V in HIV reverse transcriptase). The data set is described as follows: microbe, parasite or virus in culture. Particulars: for EC50: Human immunodeficiency virus 1, 72 h, read-out: MDR pEC50 (−log EC50) (converted); for MDR pEC50 (−log EC50): MDR HIV strain (multiple RT mutations), MT4 LTR-EGFP cells, three days after infection. Type of data set: cell-based, HIV-1.
Source text: as §1
“MDR” refers to a strain that contains mutations L100I, K103N, Y181C, E138G, V179I, L2214F, V278V/I and A327A/V in HIV reverse transcriptase.

Data set [2] has as its system HIV strain IIIB (wild type). As to the kind of experiment: microbe, parasite or virus in culture. As to conditions: for EC50: Human immunodeficiency virus 1, IIIB, 72 h, read-out: IIIB pEC50 (−log EC50) (converted); for IIIB pEC50 (−log EC50): wild type HIV strain IIIB, MT4 LTR-EGFP cells, GFP fluorescence, three days after infection. On the procedure:
Compounds of the invention were tested for their potency against wild type virus and clinically isolated HIV strains harboring one or more mutations associated with resistance to reverse transcriptase inhibitors. Antiviral activity was evaluated using a cellular assay performed according to the following procedure.
The human T-cell line MT4 was engineered with Green Fluorescent Protein (GFP) and a HIV-specific promoter, HIV-1 long terminal repeat (LTR). This cell line, designated MT4 LTR-EGFP, can be used for the in vitro evaluation of anti-HIV activity of investigational compounds. In HIV-1 infected cells, the Tat protein is produced, which upregulates the LTR promotor and eventually leads to stimulation of the GFP reporter production, allowing to measure ongoing HIV-infection fluorometrically.
Analogously, MT4 cells were engineered with GFP and the constitutional cytomegalovirus (CMV) promotor. […] Cytotoxic investigational compounds reduce GFP levels of mock-infected MT4 CMV-EGFP cells.
The ratio of CC50 to EC50 is defined as the selectivity index (SI) and is an indication of the selectivity of the anti-HIV activity of the inhibitor. The ultimate monitoring of HIV-1 infection and cytotoxicity was done using a scanning microscope. Image analysis allows very sensitive detection of viral infection. Measurements were done before cell necrosis, which usually takes place about five days after infection, in particular measurements were performed three days after infection.
The columns IIIB, L100I, etc. in the table list the pEC50 (−log EC50) values against various strains IIIB, L100I, etc.; pSI lists the −log SI values.
Strain IIIB is wild type HIV strain.

Each structure is given as a SMILES string.

With `Cc1cc(/C=C/C#N)cc(C)c1Nc1cc(-c2cccnc2)nc(Nc2ccc(C#N)cc2)n1` [Compound 1], the melting point (commonly the temperature, or range, at which the solid turns liquid) came to 180 °C. In addition, the EC50 (in general, the concentration at which the effect is half-maximal) in the data set with HIV strain L100I + K103N was 0.115 µM. In the data set with HIV strain K103N + Y181C, the 50% effective concentration (EC50) was 0.0195 µM. The EC50 in the data set with HIV strain Y181C is 0.011 µM. The concentration giving a half-maximal response (EC50) in data set [1] was 1.78 µM. In data set [2], the EC50 is 0.00347 µM.
Molecule `COCCNC(=O)c1cc(Nc2c(C)cc(/C=C/C#N)cc2C)nc(Nc2ccc(C#N)cc2)n1` [Compound 4] returned a melting point of 130 °C. Also, in the data set with HIV strain K103N + Y181C, the half-maximal effective concentration (EC50) is 0.0102 µM. Besides, the half-maximal effective concentration (EC50) with HIV strain Y181C is 0.0138 µM. For the same molecule, in data set [1], the EC50 is 2.82 µM. For the same molecule, the concentration giving a half-maximal response (EC50) in data set [2] was 0.00309 µM.
For `Cc1cc(/C=C/C#N)cc(C)c1Nc1cc(C(=O)NCCF)nc(Nc2ccc(C#N)cc2)n1` [Compound 5], the melting point is > 250 °C. Moreover, the EC50 in the data set with HIV strain L100I + K103N was 0.0251 µM. Also, the half-maximal effective concentration (EC50) in the data set on HIV strain K103N + Y181C is 0.00437 µM. For the same molecule, the EC50 in the data set on HIV strain Y181C was 0.00631 µM. Besides, in data set [1], the EC50 is 1.41 µM. Further, the EC50 in data set [2] was 0.00158 µM.
`Cc1cc(/C=C/C#N)cc(C)c1Nc1cc(C(=O)NCCC#N)nc(Nc2ccc(C#N)cc2)n1` [Compound 6] showed a melting point of 250 °C. For the same molecule, in the data set with HIV strain L100I + K103N, the EC50 was 0.0407 µM. Besides, the concentration giving a half-maximal response (EC50) with HIV strain Y181C is 0.02 µM. For the same molecule, in data set [1], the EC50 was 1.86 µM. Further, the EC50 in data set [2] is 0.00891 µM.
`Cc1cc(/C=C/C#N)cc(C)c1Nc1cc(C(=O)NCc2ccncc2)nc(Nc2ccc(C#N)cc2)n1` [Compound 7]: the melting point is 202 °C. Further, in the data set with HIV strain K103N + Y181C, the EC50 was 0.0178 µM. For the same molecule, the EC50 in the data set on HIV strain Y181C is 0.0166 µM. For the same molecule, the EC50 in data set [1] was 2.34 µM. In addition, the EC50 in data set [2] is 0.00417 µM.
Molecule `Cc1cc(/C=C/C#N)cc(C)c1Nc1cc(C(=O)NCc2ccco2)nc(Nc2ccc(C#N)cc2)n1` [Compound 8] yielded a melting point of 256 °C. The concentration giving a half-maximal response (EC50) with HIV strain L100I + K103N is 0.0851 µM. Also, the EC50 with HIV strain K103N + Y181C was 0.0316 µM. Further, the EC50 in the data set on HIV strain Y181C is 0.0186 µM. Moreover, in data set [1], the EC50 is 8.13 µM. Moreover, the EC50 in data set [2] was 0.0055 µM.
Molecule `Cc1cc(/C=C/C#N)cc(C)c1Nc1cc(C(O)c2nccs2)nc(Nc2ccc(C#N)cc2)n1` (centres unmarked) [Compound 11] registered a melting point of 147 °C. Also, the concentration giving a half-maximal response (EC50) in the data set on HIV strain L100I + K103N was 0.00631 µM. Besides, in the data set on HIV strain K103N + Y181C, the EC50 is 0.0191 µM. Besides, in the data set on HIV strain Y181C, the EC50 was 0.00407 µM. In addition, the half-maximal effective concentration (EC50) in data set [1] was 0.692 µM. For the same molecule, in data set [2], the EC50 was 0.00182 µM.
`Cc1cc(/C=C/C#N)cc(C)c1Nc1cc(CN2CCN(C)CC2)nc(Nc2ccc(C#N)cc2)n1` [Compound 13]: in the data set with HIV strain L100I + K103N, the “L100I + K103N pEC50 (−log EC50)” value turned out to be 7.20. In addition, the “K103N + Y181C pEC50 (−log EC50)” value in the data set on HIV strain K103N + Y181C is listed as 7.68. Moreover, in the data set on HIV strain Y181C, the “Y181C pEC50 (−log EC50)” value amounted to 7.79. Moreover, the “MDR pEC50 (−log EC50)” value in data set [1] is reported as 5.59. The “IIIB pEC50 (−log EC50)” value in data set [2] is 8.54.
The matching figures for `Cc1cc(C=CC#N)cc(C)c1Nc1cc(CN(C)CC#N)nc(Nc2ccc(C#N)cc2)n1` [Compound 21]: 7.16, 7.71, 7.73, 5.70 and 8.47.
The matching figures for `CCOP(=O)(OCC)OCc1cc(Nc2c(C)cc(/C=C/C#N)cc2C)nc(Nc2ccc(C#N)cc2)n1` [Compound 32]: 7.20, 7.50, 7.60, 6.40 and 8.50.
Take `Cc1cc(/C=C/C#N)cc(C)c1Nc1cc(COC(N)=O)nc(Nc2ccc(C#N)cc2)n1` [Compound 33]: in the data set with HIV strain L100I + K103N, the “L100I + K103N pEC50 (−log EC50)” value came to 7.10. The “K103N + Y181C pEC50 (−log EC50)” value in the data set on HIV strain K103N + Y181C turned out to be 8.00. Further, the “Y181C pEC50 (−log EC50)” value with HIV strain Y181C is given as 7.70. Further, the “MDR pEC50 (−log EC50)” value in data set [1] came out at 6.20. The “IIIB pEC50 (−log EC50)” value in data set [2] is reported as 8.40.
For `Cc1cc(/C=C/C#N)cc(C)c1Nc1cc(/C=N/O)nc(Nc2ccc(C#N)cc2)n1` [Compound 34], the melting point was 220 °C. Also, in the data set on HIV strain L100I + K103N, the half-maximal effective concentration (EC50) is 0.0126 µM. The EC50 in the data set with HIV strain K103N + Y181C is 0.00398 µM. Further, the EC50 in the data set on HIV strain Y181C is 0.01 µM. Besides, the EC50 in data set [1] is 0.501 µM. In addition, the EC50 in data set [2] was 0.00398 µM.

Values taken from patent publication US9006243B2, “HIV inhibiting 6-substituted pyrimidines” (Janssen R&D Ireland, priority 2006, dated 2015).
